The values that follow come from publication PMC9514063 (Protein Science : A Publication of the Protein Society, 2022).

By Kd is commonly meant the concentration at which binding is half-saturated. A higher Kd goes with a looser complex.

The test concerns the target proBFT-3 (Bacteroides fragilis, UniProt O86049). The test is described as follows: isothermal titration calorimetry. The format is binding.

Chain of proBFT-3 (O86049 18-397 limits assumed): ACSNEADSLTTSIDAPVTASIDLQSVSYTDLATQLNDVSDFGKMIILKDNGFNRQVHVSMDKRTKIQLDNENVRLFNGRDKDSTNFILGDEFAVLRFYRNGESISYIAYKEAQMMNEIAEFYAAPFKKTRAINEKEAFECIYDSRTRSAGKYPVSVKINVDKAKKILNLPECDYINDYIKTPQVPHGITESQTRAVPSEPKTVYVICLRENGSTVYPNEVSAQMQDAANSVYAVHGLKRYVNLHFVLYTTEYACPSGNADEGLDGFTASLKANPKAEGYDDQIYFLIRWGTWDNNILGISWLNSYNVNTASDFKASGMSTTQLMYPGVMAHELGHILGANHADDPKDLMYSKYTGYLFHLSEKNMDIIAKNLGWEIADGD

As for `C[C@@H]1CCc2cc(F)cc3c(=O)c(C(=O)O)cn1c23` [C-4, flumequine], the Kd turned out to be 20 µM.
`COc1ccc([C@@H]2CC(=O)c3c(O)cc(O)cc3O2)cc1O` [C-10, hesperetin] showed an equilibrium dissociation constant (Kd) of 22 µM.
